Test results reported in US20090176714A1, “METHOD OF REDUCING THE EFFECTS OF ABeta AND COMPOSITIONS THEREFORE” (priority 2004, published 2009).

How the values were obtained:
[1] = system: hippocampal slices; assay: TUNEL and Nissl staining of hippocampal slices; assay type: cell-based, mouse; conditions: 25 μM or 50 μM Aβ
Method: Hippocampal slice cryosections from 3 animals per treatment were stained with terminal deoxynucleotidyl transferase-mediated, dUTP nick end labeling (TUNEL). Cells with DNA fragmentation were determined by the terminal deoxynucleotidyl transferase incorporation of fluorescein isothiocyanate (FITC)-12-dUTP into DNA (In Situ Cell Death Detection kit, Roche Biochem, Indianapolis, Ind.). Other sections were stained with cresyl violet acetate, and the neurons with healthy nuclei as well as the neurons with condensed and clumped chromatin were counted within the neuronal fields.
β-amyloid1-42 and reverse Aβ (Aβ42-1) were obtained from BACHEM (Torrance, Calif.). These polypeptides were dissolved in 0.1% NH3OH at 222 μM. For treatments, Aβ was aggregated at 50 μM in Neurobasal media with B-27 supplement and 1 mM glutamine at 37° C. for 24 hours. Then, the slice culture media was removed, and the slices were treated with 1 mL of 25 μM or 50 μM Aβ, reverse Aβ, or vehicle for 24 hours. Human TTR (Calbiochem) or IGF-2 (Peprotech, Rocky Hill, N.J.) was added to slices together with the Aβ treatment at final concentrations of 3 μM (TTR) or 500 nM (IGF-2). sAPPα was prepared as described previously (Mattson et al., Neuron, 10:243-254 (1993)).
Unless otherwise stated, all sAPPα treatments were performed at 1 nM 48 hours prior to the addition of Aβ. […]

[2] = system: human cortical slices; assay: TUNEL/NeuN staining of human cortical slices; assay type: cell-based
Method: β-amyloid1-42 and reverse Aβ (Aβ42-1) were obtained from BACHEM (Torrance, Calif.). These peptides were dissolved in 0.1% NH3OH at 222 μM. For treatments, Aβ or reverse Aβ was aggregated at 50 μM in Neurobasal media with B-27 supplement and 0.5 mM glutamine at 37° C. for 24 hours. Then, the slice culture media was removed, and the slices were treated with 1 mL of 25 μM or 50 μM Aβ, reverse Aβ, or vehicle for 24 hour. Human TTR (Calbiochem) was added to slices together with the Aβ treatment at final concentrations of 0.03, 0.3, and 3 μM TTR. sAPPα was obtained from Sigma (St. Louis, Mo.). Unless otherwise stated, all sAPPα treatments were performed at 1 nM 48 hours prior to the addition of Aβ. The 10 amino acid fragment of the carboxyl-terminal region of sAPPα (592-601 of APP695; SEVKMDAEFR was added according to the same protocol for sAPPα. Because a variable amount of tissue was obtained from each patient, not all treatments were performed on all patients.
Cortical slice cryosections were stained with terminal deoxynucleotidyl transferase-mediated, dUTP nick end labeling (TUNEL) and with an anti-NeuN antibody. Cells with DNA fragmentation were determined by the terminal deoxynucleotidyl transferase incorporation of fluorescein isothiocyanate (FITC)-12-dUTP into DNA (In Situ Cell Death Detection kit, Roche Biochem, Indianapolis, Ind.). At least 3 random images per slice were generated by confocal analysis at 600× magnification. The number of TUNEL positive, NeuN positive, and both TUNEL and NeuN positive cells were then quantified.

[3] = Aβ treatment, 1 subject, FIG. 6B

β-amyloid1-42 [Aβ]
DNA strand breaks as indicated by TUNEL [1]: resulted in DNA strand breaks
Percent of neurons with chromatin condensation ([1]; FIG. 1): significant increase
DNA strand breaks as indicated by TUNEL ([2]; 50 μM Aβ): resulted in DNA strand breaks
Percent of neurons that were TUNEL positive (% TUNEL/NeuN) [2, 3]: increased
Percent of total TUNEL positive cells (% TUNEL) [2, 3]: increased
